Results as given in patent US8415469B2, “Compounds and methods for kinase modulation, and indications therefor” (Plexxikon Inc., priority 2005, dated 2013).

Experiments:
Format in all cases: biochemical
Fms = target: T1, Fms (Homo sapiens, UniProt P07333); test: AlphaScreen kinase assay, Fms; details: read-out: IC50, activity toward kinase Fms
T1 construct: purchased Upstate Biotechnology

IGF1R = IGF1R (Homo sapiens, UniProt P08069); test: AlphaScreen kinase assay, IGF1R; details: read-out: IC50, activity toward kinase IGF1R
Itk = target: T2, Itk (Homo sapiens, UniProt Q08881); test: AlphaScreen kinase assay, Itk; details: read-out: IC50, activity toward kinase Itk
T2 sequence (Q08881 1-620): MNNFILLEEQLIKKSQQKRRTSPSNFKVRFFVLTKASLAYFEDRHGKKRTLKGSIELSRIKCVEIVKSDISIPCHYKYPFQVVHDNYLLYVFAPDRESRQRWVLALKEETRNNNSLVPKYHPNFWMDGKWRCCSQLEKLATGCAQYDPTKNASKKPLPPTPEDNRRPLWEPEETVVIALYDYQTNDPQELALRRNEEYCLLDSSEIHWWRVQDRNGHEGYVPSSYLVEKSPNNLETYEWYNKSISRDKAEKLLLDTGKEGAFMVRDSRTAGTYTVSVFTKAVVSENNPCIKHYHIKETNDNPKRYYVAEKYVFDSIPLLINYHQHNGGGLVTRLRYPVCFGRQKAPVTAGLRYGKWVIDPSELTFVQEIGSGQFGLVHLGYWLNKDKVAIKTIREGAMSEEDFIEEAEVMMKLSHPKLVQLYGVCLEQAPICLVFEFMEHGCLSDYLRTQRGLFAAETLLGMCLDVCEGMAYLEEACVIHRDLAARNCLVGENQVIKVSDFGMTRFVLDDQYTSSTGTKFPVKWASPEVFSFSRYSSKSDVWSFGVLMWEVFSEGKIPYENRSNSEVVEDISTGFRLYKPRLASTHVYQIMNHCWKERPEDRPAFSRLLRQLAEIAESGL
From the text: (§1) AlphaScreen assay was used to screen additional kinases. The assay is similarly dependent on the phosphorylation of a peptide substrate. In this assay, an antibody that recognizes phosphorylated substrate is bound to an acceptor bead. The peptide substrate is attached to biotin, which binds to a donor head that contains streptavidin. Thus phosphorylated substrate is bound by antibody and streptavidin, bringing the donor and acceptor heads into close proximity when kinase is not inhibited. The donor produces singlet oxygen which results in emission from the acceptor when they are in close proximity. Conversely, when kinase is inhibited, the donor and acceptor beads are not associated and the emission from the acceptor is reduced.
(§2) AlphaScreen assays were done using compounds dissolved in DMSO to a concentration of 20 mM. The compounds were diluted accordingly to the desired final concentrations in each sample well, using 1:3 serial dilution for a total of 8 concentration points.

FGFR1 = target: T3, FGFR1 (Homo sapiens, UniProt P11362, C488A/C584S); test: AlphaScreen kinase assay, FGFR1; details: read-out: IC50, activity toward kinase FGFR
T3 construct: P1351.pET N6 BI-PTP FGFR A458-E765-X C488A, C584S; made in house; host or cells: E. coli (PTP1B co-expressed)

Met = target: T4, Met (Homo sapiens, UniProt P08581); test: AlphaScreen kinase assay, Met; details: read-out: IC50, activity toward kinase Met
T4 construct: P1818.pETN6 BI-PTP MET G1056-G1364-X WT; His6 (N); made in house; host or cells: E. coli (PTP1B co-expressed)
How it was run: (§3)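 Biotinylated peptide substrate is phosphorylated by kinase; anti-phosphopeptide antibody on acceptor beads and streptavidin donor beads bring emission when substrate is phosphorylated. Inhibition lowers acceptor signal. Compounds from 20 mM DMSO stock tested as 8-point 1:3 serial dilutions.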

Ret = target: T5, Ret (Homo sapiens, UniProt P07949); test: AlphaScreen kinase assay, Ret; details: read-out: IC50, activity toward kinase Ret
T5 construct: P1378.pET-SF BI-PTP RET H661-R1012 HIS; made in house
T5 sequence (P07949 with tags, fused parts or gaps): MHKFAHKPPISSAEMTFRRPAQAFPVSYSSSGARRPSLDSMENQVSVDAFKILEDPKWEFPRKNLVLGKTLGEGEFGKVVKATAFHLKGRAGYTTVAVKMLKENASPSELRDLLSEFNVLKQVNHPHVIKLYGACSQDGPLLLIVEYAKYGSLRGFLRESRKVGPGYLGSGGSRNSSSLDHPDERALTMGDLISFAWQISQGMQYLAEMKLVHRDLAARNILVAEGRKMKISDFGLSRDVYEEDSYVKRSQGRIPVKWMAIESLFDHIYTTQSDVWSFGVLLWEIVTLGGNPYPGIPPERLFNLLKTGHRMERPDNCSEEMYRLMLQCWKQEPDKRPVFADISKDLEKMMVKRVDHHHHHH

Zap70 = target: T6, Zap70 (Homo sapiens, UniProt P43403); test: AlphaScreen kinase assay, Zap70; details: read-out: IC50, activity toward kinase Zap70
T6 construct: P1868.pFastBac1 ZAP70 D327-G606 HIS, WT; His7 (HHHHHHH) (C); made in house
T6 sequence (P43403 with tags, fused parts or gaps): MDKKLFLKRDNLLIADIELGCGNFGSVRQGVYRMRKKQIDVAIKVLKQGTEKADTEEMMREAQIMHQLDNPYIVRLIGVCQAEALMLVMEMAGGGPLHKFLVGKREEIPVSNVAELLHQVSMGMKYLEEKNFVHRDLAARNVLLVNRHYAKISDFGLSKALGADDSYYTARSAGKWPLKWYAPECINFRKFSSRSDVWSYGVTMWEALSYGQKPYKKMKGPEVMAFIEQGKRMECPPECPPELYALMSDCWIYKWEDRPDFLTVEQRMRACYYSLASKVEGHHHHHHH
How it was run: as §3

B-Raf = target: T7, B-Raf (Homo sapiens, UniProt P15056); test: AlphaScreen kinase assay, B-Raf; details: read-out: IC50, activity toward kinase B-Raf
T7 construct: purchased Upstate Biotechnology

Jnk3 = target: T8, Jnk3 (Homo sapiens, UniProt P53779); test: AlphaScreen kinase assay, Jnk3; details: read-out: IC50, activity toward kinase Jnk3
T8 construct: purchased Upstate Biotechnology

c-Raf-1 = target: T9, c-Raf-1 (Homo sapiens, UniProt P04049); test: AlphaScreen kinase assay, c-Raf-1; details: read-out: IC50, activity toward kinase c-Raf-1
T9 construct: purchased Upstate Biotechnology

B-Raf V600E = target: T10, B-Raf V600E (Homo sapiens, UniProt P15056, V600E); test: AlphaScreen kinase assay, B-Raf V600E; details: read-out: IC50, activity toward kinase B-Raf V600E
T10 construct: P4254. pFastBacBD-CDC37 BRAF D437-K722-X, V600E; His6 with pFastBac HT leader (TEV site) (N); made in house; host or cells: Sf9 (baculovirus; chaperone CDC37 co-expressed)

Jak3 = target: T11, Jak3 (Homo sapiens, UniProt P52333); test: AlphaScreen kinase assay, Jak3; details: read-out: IC50, activity toward kinase Jak3
T11 sequence (P52333 1-1124): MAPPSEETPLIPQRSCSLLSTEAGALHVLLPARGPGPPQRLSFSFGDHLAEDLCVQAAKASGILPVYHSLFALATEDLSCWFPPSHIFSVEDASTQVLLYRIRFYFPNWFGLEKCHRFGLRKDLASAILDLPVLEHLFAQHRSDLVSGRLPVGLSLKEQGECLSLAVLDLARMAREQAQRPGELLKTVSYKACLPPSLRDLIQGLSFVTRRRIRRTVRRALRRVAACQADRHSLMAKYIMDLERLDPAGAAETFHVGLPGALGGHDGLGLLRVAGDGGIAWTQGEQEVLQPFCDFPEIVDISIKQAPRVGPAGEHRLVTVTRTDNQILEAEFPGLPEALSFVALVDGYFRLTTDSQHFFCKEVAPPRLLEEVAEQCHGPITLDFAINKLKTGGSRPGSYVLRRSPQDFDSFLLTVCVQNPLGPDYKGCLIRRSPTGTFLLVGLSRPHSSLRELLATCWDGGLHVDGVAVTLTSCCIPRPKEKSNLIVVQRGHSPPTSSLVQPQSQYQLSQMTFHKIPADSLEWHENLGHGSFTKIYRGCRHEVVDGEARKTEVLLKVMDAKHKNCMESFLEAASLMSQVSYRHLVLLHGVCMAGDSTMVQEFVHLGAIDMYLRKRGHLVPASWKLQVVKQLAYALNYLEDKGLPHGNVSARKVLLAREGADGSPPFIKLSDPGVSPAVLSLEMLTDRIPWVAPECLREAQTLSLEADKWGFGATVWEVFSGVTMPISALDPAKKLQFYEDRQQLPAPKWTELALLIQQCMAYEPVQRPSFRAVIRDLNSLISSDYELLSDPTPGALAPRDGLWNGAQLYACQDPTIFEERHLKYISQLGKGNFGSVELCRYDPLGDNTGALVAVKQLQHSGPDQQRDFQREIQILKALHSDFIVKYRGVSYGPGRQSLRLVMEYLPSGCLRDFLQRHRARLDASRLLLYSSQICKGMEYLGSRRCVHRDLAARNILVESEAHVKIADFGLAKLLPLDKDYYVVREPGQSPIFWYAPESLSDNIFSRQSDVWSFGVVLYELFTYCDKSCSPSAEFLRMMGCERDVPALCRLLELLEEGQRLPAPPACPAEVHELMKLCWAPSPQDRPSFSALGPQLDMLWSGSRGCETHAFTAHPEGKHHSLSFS
From the text: as §1, §2

IKK beta = target: T12, IKK beta (Homo sapiens, UniProt O14920); test: AlphaScreen kinase assay, IKK beta; details: read-out: IC50, activity toward kinase IKK beta
T12 sequence (O14920 1-756): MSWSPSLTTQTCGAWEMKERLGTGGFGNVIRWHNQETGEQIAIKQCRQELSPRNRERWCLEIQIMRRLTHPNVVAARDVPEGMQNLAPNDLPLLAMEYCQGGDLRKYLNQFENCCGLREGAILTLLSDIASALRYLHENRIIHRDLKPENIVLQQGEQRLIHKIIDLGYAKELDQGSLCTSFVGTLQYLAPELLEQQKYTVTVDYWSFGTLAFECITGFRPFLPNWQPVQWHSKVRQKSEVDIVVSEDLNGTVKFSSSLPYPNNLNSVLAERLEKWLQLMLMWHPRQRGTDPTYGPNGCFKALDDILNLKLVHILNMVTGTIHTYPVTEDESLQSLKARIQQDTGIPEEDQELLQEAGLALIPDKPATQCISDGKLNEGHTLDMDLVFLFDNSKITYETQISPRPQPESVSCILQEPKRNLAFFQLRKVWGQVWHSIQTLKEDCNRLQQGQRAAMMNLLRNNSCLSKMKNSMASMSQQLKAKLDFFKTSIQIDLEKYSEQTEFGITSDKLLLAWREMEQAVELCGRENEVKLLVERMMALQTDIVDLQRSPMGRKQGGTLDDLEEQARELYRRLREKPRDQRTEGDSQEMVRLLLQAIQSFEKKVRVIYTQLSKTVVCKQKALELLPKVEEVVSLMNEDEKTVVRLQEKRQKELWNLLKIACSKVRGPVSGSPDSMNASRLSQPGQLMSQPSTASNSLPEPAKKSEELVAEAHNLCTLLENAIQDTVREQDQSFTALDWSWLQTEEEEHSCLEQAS

Kdr = target: T13, Kdr (Homo sapiens, UniProt P35968); test: Z'-Lyte FRET kinase assay (Invitrogen), Kdr; details: read-out: IC50, activity toward kinase Kdr
T13 construct: purchased Invitrogen (assay run by Invitrogen)

Kit = target: T14, Kit (Homo sapiens, UniProt P10721); test: AlphaScreen kinase assay, Kit; details: read-out: IC50, activity toward kinase Kit
T14 construct: P1332.N6 BI PTP KIT M552-K948-X COD; His6 (N); made in house; host or cells: E. coli (PTP1B co-expressed)

TEC = target: T15, TEC (Homo sapiens, UniProt P42680); test: AlphaScreen kinase assay, TEC; details: read-out: IC50, activity toward kinase TEC
T15 sequence (P42680 1-631): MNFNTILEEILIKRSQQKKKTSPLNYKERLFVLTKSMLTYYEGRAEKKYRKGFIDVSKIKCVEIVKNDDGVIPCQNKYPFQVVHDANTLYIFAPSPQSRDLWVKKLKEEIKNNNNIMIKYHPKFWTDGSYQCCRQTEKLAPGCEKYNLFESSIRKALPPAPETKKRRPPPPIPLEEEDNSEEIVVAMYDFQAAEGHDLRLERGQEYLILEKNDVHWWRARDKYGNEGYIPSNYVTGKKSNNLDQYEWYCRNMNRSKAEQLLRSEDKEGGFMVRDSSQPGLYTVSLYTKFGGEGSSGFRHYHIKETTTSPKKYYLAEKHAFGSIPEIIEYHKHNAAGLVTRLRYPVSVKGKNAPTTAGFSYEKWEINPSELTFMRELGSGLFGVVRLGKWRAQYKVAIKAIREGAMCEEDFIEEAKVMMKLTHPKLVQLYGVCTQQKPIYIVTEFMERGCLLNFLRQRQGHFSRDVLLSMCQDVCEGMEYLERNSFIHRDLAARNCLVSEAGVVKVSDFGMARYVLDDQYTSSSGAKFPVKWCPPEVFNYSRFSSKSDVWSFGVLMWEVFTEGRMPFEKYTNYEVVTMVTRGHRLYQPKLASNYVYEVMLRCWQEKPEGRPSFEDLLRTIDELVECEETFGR
From the text: as §1, §2

Chain of IGF1R (P08069 31-1367): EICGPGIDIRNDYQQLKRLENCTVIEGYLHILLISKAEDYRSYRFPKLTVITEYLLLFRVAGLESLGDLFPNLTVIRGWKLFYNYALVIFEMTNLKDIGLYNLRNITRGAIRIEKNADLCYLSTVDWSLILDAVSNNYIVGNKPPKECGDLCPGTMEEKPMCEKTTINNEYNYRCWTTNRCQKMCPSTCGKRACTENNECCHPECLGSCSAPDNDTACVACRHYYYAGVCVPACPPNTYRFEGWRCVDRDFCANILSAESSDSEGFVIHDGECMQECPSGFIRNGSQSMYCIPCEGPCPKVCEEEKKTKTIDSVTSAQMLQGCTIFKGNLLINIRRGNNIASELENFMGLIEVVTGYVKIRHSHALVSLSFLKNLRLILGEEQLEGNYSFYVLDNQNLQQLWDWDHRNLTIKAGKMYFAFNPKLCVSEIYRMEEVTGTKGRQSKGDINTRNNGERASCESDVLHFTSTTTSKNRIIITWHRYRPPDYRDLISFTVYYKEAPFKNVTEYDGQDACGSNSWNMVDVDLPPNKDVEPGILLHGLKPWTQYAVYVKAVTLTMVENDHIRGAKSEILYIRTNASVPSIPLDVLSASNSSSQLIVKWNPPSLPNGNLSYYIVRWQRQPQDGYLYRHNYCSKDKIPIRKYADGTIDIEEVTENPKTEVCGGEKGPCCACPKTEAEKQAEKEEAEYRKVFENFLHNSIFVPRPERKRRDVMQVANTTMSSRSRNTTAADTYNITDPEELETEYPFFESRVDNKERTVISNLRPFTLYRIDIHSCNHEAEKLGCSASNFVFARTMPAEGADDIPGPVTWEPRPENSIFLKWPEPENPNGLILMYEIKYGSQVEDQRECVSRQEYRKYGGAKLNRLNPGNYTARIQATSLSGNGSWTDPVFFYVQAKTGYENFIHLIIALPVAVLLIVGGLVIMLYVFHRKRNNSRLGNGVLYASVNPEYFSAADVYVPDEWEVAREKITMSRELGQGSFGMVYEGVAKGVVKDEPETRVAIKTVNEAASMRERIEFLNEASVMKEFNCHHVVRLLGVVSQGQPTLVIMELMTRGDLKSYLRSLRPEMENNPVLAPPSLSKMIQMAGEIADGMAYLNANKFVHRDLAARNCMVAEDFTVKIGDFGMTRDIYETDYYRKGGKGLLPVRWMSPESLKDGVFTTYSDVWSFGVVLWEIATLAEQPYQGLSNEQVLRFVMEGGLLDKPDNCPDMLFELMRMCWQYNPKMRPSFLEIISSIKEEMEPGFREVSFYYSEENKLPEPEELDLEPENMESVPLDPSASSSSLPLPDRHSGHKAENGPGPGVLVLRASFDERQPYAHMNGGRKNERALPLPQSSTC
T7 sequence (P15056 whole entry): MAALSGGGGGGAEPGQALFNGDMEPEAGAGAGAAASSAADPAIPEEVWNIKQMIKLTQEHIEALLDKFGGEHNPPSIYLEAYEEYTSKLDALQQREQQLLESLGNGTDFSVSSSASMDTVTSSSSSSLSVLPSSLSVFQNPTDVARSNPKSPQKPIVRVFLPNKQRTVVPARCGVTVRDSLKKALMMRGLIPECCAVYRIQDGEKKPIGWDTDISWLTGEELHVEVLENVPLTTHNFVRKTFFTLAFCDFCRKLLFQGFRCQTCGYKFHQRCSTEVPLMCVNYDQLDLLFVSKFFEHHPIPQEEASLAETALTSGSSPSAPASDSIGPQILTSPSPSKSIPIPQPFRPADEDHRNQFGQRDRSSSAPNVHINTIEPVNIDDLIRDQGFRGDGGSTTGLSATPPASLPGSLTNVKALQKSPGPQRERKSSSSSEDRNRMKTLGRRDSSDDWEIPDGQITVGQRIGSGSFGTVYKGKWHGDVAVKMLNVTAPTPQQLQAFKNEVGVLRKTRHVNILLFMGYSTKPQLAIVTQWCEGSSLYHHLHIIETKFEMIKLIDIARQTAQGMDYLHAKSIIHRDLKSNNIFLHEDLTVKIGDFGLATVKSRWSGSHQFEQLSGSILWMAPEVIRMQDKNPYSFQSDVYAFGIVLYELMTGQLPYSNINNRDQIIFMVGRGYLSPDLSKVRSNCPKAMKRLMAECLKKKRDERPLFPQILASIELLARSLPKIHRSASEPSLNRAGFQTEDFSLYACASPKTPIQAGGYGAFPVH
T10 sequence (P15056 with tags, fused parts or gaps V600E): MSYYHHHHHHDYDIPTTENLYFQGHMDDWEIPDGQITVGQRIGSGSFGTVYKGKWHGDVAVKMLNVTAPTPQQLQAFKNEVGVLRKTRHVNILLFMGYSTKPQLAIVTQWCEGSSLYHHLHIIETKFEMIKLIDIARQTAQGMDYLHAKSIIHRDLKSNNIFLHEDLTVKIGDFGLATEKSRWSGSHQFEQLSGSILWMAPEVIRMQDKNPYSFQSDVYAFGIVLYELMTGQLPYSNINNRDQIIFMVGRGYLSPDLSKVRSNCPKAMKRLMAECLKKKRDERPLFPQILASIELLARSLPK
T9 sequence (P04049 whole entry): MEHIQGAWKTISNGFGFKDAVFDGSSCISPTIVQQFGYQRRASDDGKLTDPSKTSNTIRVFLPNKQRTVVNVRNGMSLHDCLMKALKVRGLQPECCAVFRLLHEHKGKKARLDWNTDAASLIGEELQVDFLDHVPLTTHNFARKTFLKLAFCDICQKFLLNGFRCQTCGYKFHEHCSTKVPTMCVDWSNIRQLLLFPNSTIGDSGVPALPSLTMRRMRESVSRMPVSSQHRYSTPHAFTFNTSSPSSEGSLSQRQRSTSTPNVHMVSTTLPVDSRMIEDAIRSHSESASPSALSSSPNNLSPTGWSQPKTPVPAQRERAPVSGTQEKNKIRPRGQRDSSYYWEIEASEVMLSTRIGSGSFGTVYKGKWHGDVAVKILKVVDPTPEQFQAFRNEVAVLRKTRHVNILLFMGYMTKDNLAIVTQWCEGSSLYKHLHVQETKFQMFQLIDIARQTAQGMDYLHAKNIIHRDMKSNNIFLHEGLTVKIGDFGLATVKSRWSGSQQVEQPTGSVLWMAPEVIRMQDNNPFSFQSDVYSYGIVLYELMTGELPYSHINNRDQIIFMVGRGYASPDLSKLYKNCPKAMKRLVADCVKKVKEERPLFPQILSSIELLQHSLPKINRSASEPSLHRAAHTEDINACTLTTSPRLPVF
T3 sequence (P11362 458-765 C488A/C584S): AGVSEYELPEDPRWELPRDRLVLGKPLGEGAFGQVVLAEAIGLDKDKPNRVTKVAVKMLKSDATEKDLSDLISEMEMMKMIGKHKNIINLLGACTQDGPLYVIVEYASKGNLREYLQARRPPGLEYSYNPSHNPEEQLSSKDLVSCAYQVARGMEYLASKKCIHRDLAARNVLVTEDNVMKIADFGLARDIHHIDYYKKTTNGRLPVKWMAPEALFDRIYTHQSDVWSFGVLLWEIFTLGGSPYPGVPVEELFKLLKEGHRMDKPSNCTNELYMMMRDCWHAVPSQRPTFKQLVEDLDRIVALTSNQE
T13 sequence (P35968 20-1356): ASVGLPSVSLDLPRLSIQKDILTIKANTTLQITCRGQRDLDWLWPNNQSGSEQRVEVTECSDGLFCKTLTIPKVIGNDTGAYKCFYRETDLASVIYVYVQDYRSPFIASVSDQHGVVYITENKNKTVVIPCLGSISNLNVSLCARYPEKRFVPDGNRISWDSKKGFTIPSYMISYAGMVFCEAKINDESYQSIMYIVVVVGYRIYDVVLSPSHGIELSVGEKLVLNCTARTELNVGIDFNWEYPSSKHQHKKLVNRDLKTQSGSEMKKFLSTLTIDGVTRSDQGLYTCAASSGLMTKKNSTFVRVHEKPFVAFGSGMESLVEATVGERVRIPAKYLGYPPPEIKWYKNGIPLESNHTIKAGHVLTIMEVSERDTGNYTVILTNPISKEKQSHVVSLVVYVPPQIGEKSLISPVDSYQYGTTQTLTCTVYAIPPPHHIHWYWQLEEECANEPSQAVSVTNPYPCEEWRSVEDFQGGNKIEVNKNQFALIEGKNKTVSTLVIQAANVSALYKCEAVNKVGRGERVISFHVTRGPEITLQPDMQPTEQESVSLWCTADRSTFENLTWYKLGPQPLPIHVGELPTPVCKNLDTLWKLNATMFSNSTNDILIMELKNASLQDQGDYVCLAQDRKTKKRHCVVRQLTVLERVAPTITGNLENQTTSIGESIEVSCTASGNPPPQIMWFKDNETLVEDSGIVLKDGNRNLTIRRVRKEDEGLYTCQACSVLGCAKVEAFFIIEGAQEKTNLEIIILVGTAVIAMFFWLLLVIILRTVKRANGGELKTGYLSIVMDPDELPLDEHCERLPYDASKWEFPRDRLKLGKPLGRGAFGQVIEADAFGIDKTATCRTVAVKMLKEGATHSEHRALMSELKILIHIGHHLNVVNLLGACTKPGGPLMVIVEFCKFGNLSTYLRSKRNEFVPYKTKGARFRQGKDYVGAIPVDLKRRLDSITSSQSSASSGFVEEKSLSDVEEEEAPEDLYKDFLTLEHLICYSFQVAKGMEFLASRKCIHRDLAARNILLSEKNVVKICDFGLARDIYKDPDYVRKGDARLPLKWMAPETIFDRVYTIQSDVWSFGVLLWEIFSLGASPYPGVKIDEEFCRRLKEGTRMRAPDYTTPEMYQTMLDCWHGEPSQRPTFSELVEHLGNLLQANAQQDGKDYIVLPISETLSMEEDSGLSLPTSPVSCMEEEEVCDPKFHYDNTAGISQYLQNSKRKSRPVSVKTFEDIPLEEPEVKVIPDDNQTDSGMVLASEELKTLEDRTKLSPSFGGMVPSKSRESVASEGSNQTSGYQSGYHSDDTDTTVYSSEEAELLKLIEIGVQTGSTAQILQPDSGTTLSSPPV
T4 sequence (P08581 with tags, fused parts or gaps): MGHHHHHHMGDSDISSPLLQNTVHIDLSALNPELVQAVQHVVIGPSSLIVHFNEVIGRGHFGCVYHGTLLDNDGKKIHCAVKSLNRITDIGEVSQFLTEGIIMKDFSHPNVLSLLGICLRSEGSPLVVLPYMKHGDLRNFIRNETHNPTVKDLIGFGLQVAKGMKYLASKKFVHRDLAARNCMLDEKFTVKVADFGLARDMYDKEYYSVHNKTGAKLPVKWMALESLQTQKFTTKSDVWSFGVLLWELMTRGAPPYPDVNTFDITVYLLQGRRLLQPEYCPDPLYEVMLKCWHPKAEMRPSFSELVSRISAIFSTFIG

IC50 (Fms)	IC50 (IGF1R)	IC50 (Itk)	IC50 (FGFR1)	IC50 (Met)	IC50 (Ret)	IC50 (Zap70)	IC50 (B-Raf)	IC50 (Jnk3)	IC50 (c-Raf-1)	IC50 (B-Raf V600E)	IC50 (Jak3)	IC50 (IKK beta)	IC50 (Kdr)	IC50 (Kit)	IC50 (TEC)	Structure (SMILES)
≤ 10 µM	≤ 10 µM	≤ 10 µM	≤ 10 µM	–	–	–	–	–	–	–	–	–	–	–	–	CS(=O)(=O)Nc1cccc(-c2cnc3[nH]ccc3c2)c1 [Compound P-1337]
–	≤ 10 µM	≤ 10 µM	–	≤ 10 µM	≤ 10 µM	≤ 10 µM	≤ 10 µM	≤ 10 µM	≤ 10 µM	≤ 10 µM	–	–	–	–	–	CS(=O)(=O)Nc1cccc(-c2cnc3[nH]cc(C(=O)c4cc(O)ccc4F)c3c2)c1 [Compound P-0716, N-{3-[3-(2-Fluoro-5-hydroxy-benzoyl)-1H-pyrrolo[2,3-b]pyridin-5-yl]-phenyl}-methanesulfonamide]
–	≤ 10 µM	–	–	–	–	–	–	–	–	–	≤ 10 µM	≤ 10 µM	≤ 10 µM	–	–	OCc1cccc(-c2ccnc3[nH]ccc23)c1 [Compound P-0084]
–	–	–	≤ 10 µM	–	–	–	≤ 10 µM	–	≤ 10 µM	≤ 10 µM	–	–	–	≤ 10 µM	≤ 10 µM	COc1ccc(S(=O)(=O)Nc2ccc(F)c(C(=O)c3c[nH]c4ncc(Cl)cc34)c2F)cc1 [Compound P-0983, N-[3-(5-Chloro-1H-pyrrolo[2,3-b]pyridine-3-carbonyl)-2,4-difluoro-phenyl]-4-methoxy-benzenesulfonamide]
